Laboratory results taken from US20070196288A1, “Method of treating periodontitis and of reducing dentinal sensitivity” (Research Foundation of the State University of New York, priority 2006, published 2007).

How the values were obtained:
[1] = test system: cell culture media-precipitated proteases from P. Gingivalis; experiment: BAPNA hydrolysis by culture media-precipitated proteins; assay type: biochemical, P. Gingivalis 381; settings: FIG. 1; inhibitor 2-10 mM tested, 10 mM stated for gadolinium nitrate; 5% 2-mercaptoethanol, 37° C., 1 hour
Method: (§1) All steps in the isolation of P. Gingivalis proteins were carried out at 4° C. […] The cells and culture media were separated by centrifugation at 10,000×g for 10 minutes in a Sorvall centrifuge.
To the cell-separated culture supernatant, ammonium sulfate was added to achieve 80% saturation in a volume of 400 ml. After 4 hours, the precipitate was collected by centrifugation at 11,000×g for 45 minutes. It was then dissolved in HEPES and dialyzed against 4 liters of HEPES buffer. The precipitate formed on dialysis was removed by centrifugation at 10,000×g for 30 minutes, the supernatant was collected, and the precipitated material was discarded. Extracted proteins was analyzed for protein content using a Spectrophotometer ND-1000.
(§2) Activity of cell surface-extracted and culture-precipitated proteases was assayed by using the synthetic chromogenic substrate benzoyl-L-Arg-p-nitroanilide (BAPNA). [Erlanger, B. F., Kokowsky, N. & Cohen, W., “The Preparation and Properties of Two New Chromogenic Substrates of Trypsin”, 95 Arch. […] Colorimetric values measured as absorbance were obtained using Spectronic 2000 Methodology for culture media-precipitated proteins.
The reaction mixture consisted of 50 μl of 100 mM substrate in 50 mM HEPES buffer, pH 7, and 25 μl of the sample protease containing 2 mg/ml of protein was used to test chromogenic activity of the substrate. With 5% of 2-mercaptoethanol as reducing agent, volume was made to 250 μl. Various concentrations of the inhibitor 2 mM; 4 mM; 6 mM; 8 mM; 10 mM were used.
(§3) After incubation at 37° C. for 1 hour, 100 μl of 5 N acetic acid was added to stop the reaction in both experimental samples. The total volume was made to 1 ml by addition of water. The p-nitroaniline released was determined by measuring A405.

[2] = test system: cell surface-extracted proteases from P. Gingivalis; experiment: BAPNA hydrolysis by cell surface-extracted proteins; assay type: biochemical, P. Gingivalis 381; settings: for inhibitory effect on cell surface-extracts (BAPNA hydrolysis): FIG. 2, inhibitor 0.4-2.4 mM tested, 2.4 mM stated for gadolinium nitrate, 5% 2-mercaptoethanol, 37° C., 1 hour; for OD at A405 (p-nitroaniline released): inhibitor concentration 2.4 mM
Method: as §1
P. Gingivalis cells collected after centrifugation were washed three times with 50 millimolar (“mM”) HEPES buffer, pH 7.0. The washed cells were stirred with 1% Triton X-100 (Fisher Scientific) dissolved in HEPES (Fisher Scientific) at 4° C. for 15 minutes to solubilize cell surface proteins. The cells were centrifuged at 10,000×g in a Sorvall centrifuge for 10 minutes, and the supernatant was collected. [Sojar, H. T., Lee, J. Y., Bedi, G. S. et al., “Purification and Characterization of a Protease from Porphyromonas Gingivalis Capable of Degrading Salt-Solubilized Collagen”, 61 Infect. Immun. […] The amount of protein was estimated using a Spectrophotometer ND-1000 by absorbance at 280 nm.
as §2
The reaction mixture consisted of 100 μl of 100 mM substrate in 50 mM HEPES buffer, pH 7, 50 μl of an approximately 1 mg/ml of proteins was used to test chromogenic activity of the substrate. With 5% of 2-mercaptoethanol as reducing agent, the volume was made to 500 μl. Various volumes of the inhibitor 0.4 mM; 0.8 mM; 1.2 mM; 1.6 mM; 2.0 mM; 2.4 mM were used.
as §3

[3] = test system: P. Gingivalis proteins extracted from cell surface and precipitated from cell culture media (gelatin-cleaving / collagenolytic activity); experiment: Gelatin zymography; assay type: biochemical, P. Gingivalis 381; settings: inhibitor 5 mM in development buffer, 37° C. overnight; both protein preparations (FIGS. 3 and 4)
Description: Since P. Gingivalis proteases cleave gelatin effectively, the gelatin-cleaving activity of the extracted proteins was checked by zymography, as described by Heussen and Dowdle using 10% Zymogen (Gelatin) Gel 1.0 mm×10 well (Invitrogen Corporation). [Heussen, C. & Dowdle, E. B., “Electrophoretic Analysis of Plasminogen Activators in Polyacrylamide Gels Containing Sodium Dodecyl Sulfate and Copolymerized Substrates”, 102 Anal. Biochem. 196-202 (1980).]
The extracted proteins, with the reducing sample buffer containing 5% mercaptoethanol, was electrophoresed. After electrophoresis, the gel was washed in 50 mM HEPES, pH 7.0, containing 2% Triton X-100 for 30 minutes, and rinsed twice with the same buffer without Triton X-100. The gel was then cut into 3 parts before transferring to a development buffer containing 50 mM HEPES, 5% 2-mercaptoethanol, buffered at pH 7.0. One part was incubated with developing buffer whereas the other two parts were incubated in the presence of inhibitor with varying concentrations of 5 mM and 10 mM. The gel was incubated at 37° C. overnight on a rocker. The incubated gel was then fixed with 50% methanol and 12% acetic acid for 30 minutes, and stained with 0.1% Coomassie blue in 50% methanol and 12% acetic acid to visualize lytic bands.

[4] = pH of the applied solution; assay type: physicochemical; settings: pH of the solution or product as applied to dentine
[5] = Dissolution of gadolinium materials; assay type: physicochemical

| SMILES | inhibition of protease activity (BAPNA hydrolysis), cell culture-precipitated proteins [1] [%] | inhibitory effect on cell surface-extracts (BAPNA hydrolysis) [2] [%] | OD at A405 (p-nitroaniline released) [2] | effect on gelatin-cleaving / collagenolytic activity on zymogram [3] | pH [4] | pH ([4]; listed as Gadolinium nitrate) | conditions required for dissolution [5] |
| --- | --- | --- | --- | --- | --- | --- | --- |
| O.O.O.O.O.O.[Cl][Sm]([Cl])[Cl] [samarium chloride, samarium chloride hexahydrate, (SmCl3.6H2O)] | ~75 | ~59 | ~0.39 |  |  |  |  |
| O.O.O.O.O.O.O.[Ce+3].[Cl-].[Cl-].[Cl-] [cerium chloride, cerium chloride heptahydrate (CeCl3.7H2O)] | ~11 | ~32 | ~0.66 |  |  |  |  |
| O.O.O.O.O.O.O=[N+]([O-])[O-].O=[N+]([O-])[O-].O=[N+]([O-])[O-].[Gd+3] [gadolinium nitrate, gadolinium nitrate hexahydrate, (Gd(NO3)3.6H2O)] |  | ~56 | ~0.43 | inhibited the collagenolytic activity | 4.3 | about 4.3 |  |
| O.O.O.O.O.O.[Cl-].[Cl-].[Cl-].[Gd+3] [gadolinium chloride, gadolinium chloride hexahydrate (GdCl3.6H2O)] | ~70 | ~54 | ~0.45 |  |  |  |  |
| [Gd] [gadolinium] |  |  |  | negative staining bands were absent |  |  |  |
| O=C([O-])C(=O)[O-].O=C([O-])C(=O)[O-].O=C([O-])C(=O)[O-].[Gd+3].[Gd+3] [Gadolinium oxalate] |  |  |  |  |  |  | required very acidic conditions for dissolution |
